# Source: PubChem BioAssay AID1918949 (Molecular Pharmacology Branch, DTP, NCI, 2023)
# pIC50: −log10 of the molar value.
# Test system: K24384-001-R-PDC complex spheroid viability
# Assay: Anticancer human tumor K24384-001-R-PDC patient-derived pancreatic adenocarcinoma cell line growth inhibition
# Conditions: for pIC50: curve of first compound; for viability, T/C: stronger effect = lower value
# Summary of the method: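 Multicellular complex spheroids of tumor cells with human endothelial cells (HUVEC) and mesenchymal stem cells; the LSD1 inhibitor iadademstat was combined with standard-of-care or investigational agents. Top concentration at or near clinical Cmax, half-log dilutions; final DMSO ≤0.25%.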
# [1] = second compound 0.1 µM, first compound 0.000316 µM
# [2] = second compound 0.1 µM, first compound 0.001 µM
# [3] = second compound 0.1 µM, first compound 0.00316 µM
# [4] = second compound 0.1 µM, first compound 0.01 µM
# [5] = second compound 0.1 µM, first compound 0.0316 µM
# [6] = second compound 0.1 µM, first compound 0.1 µM
# [7] = second compound 0.316 µM, first compound 0.000316 µM
# [8] = second compound 0.316 µM, first compound 0.001 µM
# [9] = second compound 0.316 µM, first compound 0.00316 µM
# [10] = second compound 0.316 µM, first compound 0.01 µM
# [11] = second compound 0.316 µM, first compound 0.0316 µM
# [12] = second compound 0.316 µM, first compound 0.1 µM
# [13] = second compound 1 µM, first compound 0.000316 µM
# [14] = second compound 1 µM, first compound 0.001 µM
# [15] = second compound 1 µM, first compound 0.00316 µM
# [16] = second compound 1 µM, first compound 0.01 µM
# [17] = second compound 1 µM, first compound 0.0316 µM
# [18] = second compound 1 µM, first compound 0.1 µM
# [19] = second compound 3.16 µM, first compound 0.000316 µM
# [20] = second compound 3.16 µM, first compound 0.001 µM
# [21] = second compound 3.16 µM, first compound 0.00316 µM
# [22] = second compound 3.16 µM, first compound 0.01 µM
# [23] = second compound 3.16 µM, first compound 0.0316 µM
# [24] = second compound 3.16 µM, first compound 0.1 µM
# [25] = second compound 10 µM, first compound 0.000316 µM
# [26] = second compound 10 µM, first compound 0.001 µM
# [27] = second compound 10 µM, first compound 0.00316 µM
# [28] = second compound 10 µM, first compound 0.01 µM
# [29] = second compound 10 µM, first compound 0.0316 µM
# [30] = second compound 10 µM, first compound 0.1 µM
# 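Further: spheroids exposed to agents for seven days before luminescence viability reading.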
# 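Wherever viability, T/C is given: 100% = DMSO vehicle control viability.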
structure (smiles),measurement,setting,value
CC(C)CC(NC(=O)C(Cc1ccccc1)NC(=O)c1cnccn1)B(O)O (stereo not given) + NC1CCC(NC2CC2c2ccccc2)CC1,pIC50,second compound 0.1 µM,9.33
same,pIC50,second compound 0.316 µM,9.32
same,pIC50,second compound 1 µM,9.42
same,pIC50,second compound 3.16 µM,9.46
same,pIC50,second compound 10 µM,9.37
same,"viability, T/C",[1],74%
same,"viability, T/C",[2],1.78%
same,"viability, T/C",[3],0.23%
same,"viability, T/C",[4],0.12%
same,"viability, T/C",[5],0.2%
same,"viability, T/C",[6],0.23%
same,"viability, T/C",[7],76.5%
same,"viability, T/C",[8],1.74%
same,"viability, T/C",[9],0.26%
same,"viability, T/C",[10],0.08%
same,"viability, T/C",[11],0.76%
same,"viability, T/C",[12],1.15%
same,"viability, T/C",[13],59.1%
same,"viability, T/C",[14],2.07%
same,"viability, T/C",[15],0.15%
same,"viability, T/C",[16],0.08%
same,"viability, T/C",[17],0.09%
same,"viability, T/C",[18],0.19%
same,"viability, T/C",[19],53.9%
same,"viability, T/C",[20],1.45%
same,"viability, T/C",[21],0.27%
same,"viability, T/C",[22],0.11%
same,"viability, T/C",[23],0.12%
same,"viability, T/C",[24],0.18%
same,"viability, T/C",[25],64.1%
same,"viability, T/C",[26],8.36%
same,"viability, T/C",[27],2.45%
same,"viability, T/C",[28],0.22%
same,"viability, T/C",[29],0.21%
same,"viability, T/C",[30],0.3%
CC(C)CC(NC(=O)CNC(=O)c1cc(Cl)ccc1Cl)B1OC(=O)CC(CC(=O)O)(C(=O)O)O1 (stereo not given) + NC1CCC(NC2CC2c2ccccc2)CC1,pIC50,second compound 0.1 µM,8.12
same,pIC50,second compound 0.316 µM,8.24
same,pIC50,second compound 1 µM,8.22
same,pIC50,second compound 3.16 µM,8.25
same,pIC50,second compound 10 µM,8.30
same,"viability, T/C",[1],100%
same,"viability, T/C",[2],90.2%
same,"viability, T/C",[3],82.7%
same,"viability, T/C",[4],40.4%
same,"viability, T/C",[5],3.3%
same,"viability, T/C",[6],0.72%
same,"viability, T/C",[7],97.4%
same,"viability, T/C",[8],91.9%
same,"viability, T/C",[9],75.4%
same,"viability, T/C",[10],27.2%
same,"viability, T/C",[11],3.1%
same,"viability, T/C",[12],0.77%
same,"viability, T/C",[13],89.9%
same,"viability, T/C",[14],87.7%
same,"viability, T/C",[15],75.1%
same,"viability, T/C",[16],30.9%
same,"viability, T/C",[17],4.13%
same,"viability, T/C",[18],0.7%
same,"viability, T/C",[19],92.1%
same,"viability, T/C",[20],78.3%
same,"viability, T/C",[21],74.1%
same,"viability, T/C",[22],26.5%
same,"viability, T/C",[23],2.82%
same,"viability, T/C",[24],0.68%
same,"viability, T/C",[25],92.9%
same,"viability, T/C",[26],75.7%
same,"viability, T/C",[27],69.8%
same,"viability, T/C",[28],22.8%
same,"viability, T/C",[29],2.54%
same,"viability, T/C",[30],0.55%
COc1cc(Nc2ncc3c(n2)-c2ccc(Cl)cc2C(c2c(F)cccc2OC)=NC3)ccc1C(=O)O + NC1CCC(NC2CC2c2ccccc2)CC1,pIC50,second compound 0.1 µM,< 6.00
same,pIC50,second compound 0.316 µM,< 6.00
same,pIC50,second compound 1 µM,< 6.00
same,pIC50,second compound 3.16 µM,< 6.00
same,pIC50,second compound 10 µM,< 6.00
same,"viability, T/C",[3],82.2%
same,"viability, T/C",[4],91.4%
same,"viability, T/C",[5],70.1%
same,"viability, T/C",[6],54.5%
same,"viability, T/C","second compound 0.1 µM, first compound 0.316 µM",58.4%
same,"viability, T/C","second compound 0.1 µM, first compound 1 µM",84.1%
same,"viability, T/C",[9],87.8%
same,"viability, T/C",[10],72%
same,"viability, T/C",[11],71%
same,"viability, T/C",[12],56.7%
same,"viability, T/C","second compound 0.316 µM, first compound 0.316 µM",52.2%
same,"viability, T/C","second compound 0.316 µM, first compound 1 µM",58.6%
same,"viability, T/C",[15],71.1%
same,"viability, T/C",[16],87.3%
same,"viability, T/C",[17],59.8%
same,"viability, T/C",[18],53.8%
same,"viability, T/C","second compound 1 µM, first compound 0.316 µM",67.3%
same,"viability, T/C","second compound 1 µM, first compound 1 µM",60.7%
same,"viability, T/C",[21],83.7%
same,"viability, T/C",[22],77.6%
same,"viability, T/C",[23],62.2%
same,"viability, T/C",[24],57.3%
same,"viability, T/C","second compound 3.16 µM, first compound 0.316 µM",51.9%
same,"viability, T/C","second compound 3.16 µM, first compound 1 µM",60.6%
same,"viability, T/C",[27],80.8%
same,"viability, T/C",[28],84.1%
same,"viability, T/C",[29],58.9%
same,"viability, T/C",[30],58.8%
same,"viability, T/C","second compound 10 µM, first compound 0.316 µM",52.4%
same,"viability, T/C","second compound 10 µM, first compound 1 µM",60.8%
O=C(C=Cc1cccc(S(=O)(=O)Nc2ccccc2)c1)NO + NC1CCC(NC2CC2c2ccccc2)CC1,pIC50,second compound 0.1 µM,6.58
same,pIC50,second compound 0.316 µM,6.62
same,pIC50,second compound 1 µM,6.62
same,pIC50,second compound 3.16 µM,6.58
same,pIC50,second compound 10 µM,6.72
same,"viability, T/C","second compound 0.1 µM, first compound 0.00949 µM",109%
same,"viability, T/C","second compound 0.1 µM, first compound 0.03 µM",112%
same,"viability, T/C","second compound 0.1 µM, first compound 0.0949 µM",116%
same,"viability, T/C","second compound 0.1 µM, first compound 0.3 µM",41.7%
same,"viability, T/C","second compound 0.1 µM, first compound 0.949 µM",3.48%
same,"viability, T/C","second compound 0.1 µM, first compound 3 µM",0.14%
same,"viability, T/C","second compound 0.316 µM, first compound 0.00949 µM",131%
same,"viability, T/C","second compound 0.316 µM, first compound 0.03 µM",107%
same,"viability, T/C","second compound 0.316 µM, first compound 0.0949 µM",95.1%
same,"viability, T/C","second compound 0.316 µM, first compound 0.3 µM",39.4%
same,"viability, T/C","second compound 0.316 µM, first compound 0.949 µM",4.3%
same,"viability, T/C","second compound 0.316 µM, first compound 3 µM",0.15%
same,"viability, T/C","second compound 1 µM, first compound 0.00949 µM",90.3%
same,"viability, T/C","second compound 1 µM, first compound 0.03 µM",121%
same,"viability, T/C","second compound 1 µM, first compound 0.0949 µM",95.8%
same,"viability, T/C","second compound 1 µM, first compound 0.3 µM",39.1%
same,"viability, T/C","second compound 1 µM, first compound 0.949 µM",4.13%
same,"viability, T/C","second compound 1 µM, first compound 3 µM",0.15%
same,"viability, T/C","second compound 3.16 µM, first compound 0.00949 µM",109%
same,"viability, T/C","second compound 3.16 µM, first compound 0.03 µM",129%
same,"viability, T/C","second compound 3.16 µM, first compound 0.0949 µM",113%
same,"viability, T/C","second compound 3.16 µM, first compound 0.3 µM",42.5%
same,"viability, T/C","second compound 3.16 µM, first compound 0.949 µM",4.22%
same,"viability, T/C","second compound 3.16 µM, first compound 3 µM",0.16%
same,"viability, T/C","second compound 10 µM, first compound 0.00949 µM",107%
same,"viability, T/C","second compound 10 µM, first compound 0.03 µM",118%
same,"viability, T/C","second compound 10 µM, first compound 0.0949 µM",73%
same,"viability, T/C","second compound 10 µM, first compound 0.3 µM",35.7%
same,"viability, T/C","second compound 10 µM, first compound 0.949 µM",3.52%
same,"viability, T/C","second compound 10 µM, first compound 3 µM",0.24%
